Experiments:
KCNQ2/3 channels = biological target: T1, KCNQ2/3 channels (Homo sapiens, UniProt O43525+O43526); experiment: Fluorescence assay using a voltage sensitive dye (fluorimetry); format: cell-based; conditions: CHO-K1 cells expressing KCNQ2/3 channels; for Emax: relative to retigabine = 100%, read-out: Fluorimetry % efficacy (retigabine = 100%)
T1 construct: expressed in transfected cells
Description: Pharmacological Experiments Method I. Fluorescence Assay Using a Voltage Sensitive Dye
Human CHO—K1 cells expressing KCNQ2/3 channels are cultivated adherently at 37° C., 5% CO2 and 95% humidity in cell culture bottles (e.g. 80 cm^2 TC flasks, Nunc) with DMEM-high glucose (Sigma Aldrich, D7777) including 10% FCS (PAN Biotech, e.g. 3302-P270521) or alternatively MEM Alpha Medium (lx, liquid, Invitrogen, #22571), 10% fetal calf serum (FCS) (Invitrogen, #10270-106, heat-inactivated) and the necessary selection antibiotics.
Before being sown out for the measurements, the cells are washed with a 1×DPBS buffer without Ca^2+/Mg^2+ (e.g. Invitrogen, #14190-094) and detached from the bottom of the culture vessel by means of Accutase (PAA Laboratories, #L11-007) (incubation with Accutase for 15 min at 37° C.). The cell count then present is determined using a CASY™ cell counter (TCC model, Scharfe System) in order subsequently to apply, depending on the density optimization for the individual cell line, 20,000-30,000 cells/well/100 μl of the described nutrient medium to 96-well measuring plates of the Corning™ CeIIBIND™ type (Flat Clear Bottom Black Polystyrene Microplates, #3340). Incubation is then carried out for one hour at room temperature, without gassing or adjusting the humidity, followed by incubation for 24 hours at 37° C., 5% CO2 and 95% humidity.
The voltage-sensitive fluorescent dye from the Membrane Potential Assay Kit (Red™ Bulk format part R8123 for FLIPR, MDS Analytical Technologies™) is prepared by dissolving the contents of a vessel Membrane Potential Assay Kit Red Component A in 200 ml of extracellular buffer (ES buffer, 120 mM NaCl, 1 mM KCl, 10 mM HEPES, 2 mM CaCl2, 2 mM MgCl2, 10 mM glucose; pH 7.4). After removal of the nutrient medium, the cells are washed with 200 μl of ES buffer, then covered with a layer of 100 μl of the dye solution prepared above and incubated for 45 min at room temperature with the exclusion of light.
The fluorescence measurements are carried out with a BMG Labtech FLUOstar™, BMG Labtech NOVOstar™ or BMG Labtech POLARstar™ instrument (525 nm excitation, 560 nm emission, Bottom Read mode). After incubation of the dye, 50 μl of the test substances in the desired concentrations, or 50 μl of ES buffer for control purposes, are introduced into separate cavities of the measuring plate and incubated for 30 min at room temperature while being shielded from light. The fluorescence intensity of the dye is then measured for 5 min and the fluorescence value F1 of each well is thus determined at a given, constant time. 15 μl of a […] KCl solution ([…]) are then added to each well. The change in fluorescence is subsequently measured until all the relevant measured values have been obtained (mainly 5-30 min). At a given time after KCl application, a fluorescence value F2 is determined, in this case at the time of the fluorescence peak.
For calculation, the fluorescence intensity F2 is corrected for the fluorescence intensity F1, and the activity (ΔF/F) of the target compound on the potassium channel is determined as follows:
In order to determine whether a substance has agonistic activity,
A substance has an agonistic activity on the potassium channel if
Calculations of EC50 and IC50 values are carried out with the aid of ‘Prism v4.0’ software (GraphPad Software™)

[1] = test system: withdrawal reflex of the rat tail (tail flick); experiment: Low-intensity tail flick test (rat); format: in vivo; conditions: dose 10 mg/kg
Description: Method II. Low-Intensity Tail Flick Test (Rat)
In the low-intensity tail flick test, the determination of the antinociceptive effect of the compounds according to the invention towards an acute noxious thermal stimulus is carried out by measuring the withdrawal reflex of the rat tail (tail flick) in response to a radiant heat beam (analgesia meter; model 2011 of the company Rhema Labortechnik, Hofheim, Germany) according to the method described by D'Amour and Smith (J. Pharm. Exp. Ther. 72, 74 79 (1941). To this end, the rats were placed in a plexiglas restrainer, and a low-intensity radiant heat beam (48° C.) was focused onto the dorsal surface of the tail root. The stimulus intensity was adjusted to result in a mean pre-drug control withdrawal latency of about 7 s, thus also allowing a supraspinal modulation of the spinally mediated acute nociceptive reflex. […] Before administration of a compound according to the invention, the animals were pre-tested twice in the course of five minutes and the mean of these measurements was calculated as the pre-test mean. The antinociceptive effect was determined at 20, 40 and 60 min after peroral compound administration. The antinociceptive effect was calculated based on the increase in the tail withdrawal latency according to the following formula and is expressed as percentage of the maximum possible effect (MPE [%]): MPE=[(T1−T0)/(T2−T0)]*100 […]

EC50 (KCNQ2/3 channels) [nM]	Emax (KCNQ2/3 channels) [%]	SMILES	Low intensity tail flick, rat, peroral, ED50 or MPE (dose) [mg/kg] [1]
2190	62	CCSc1nc2cnccc2c(C)c1C(=O)NCc1cccc(F)c1 [Example 2, 2-Ethylsulfanyl-N-[(3-fluorophenyl)-methyl]-4-methyl-[1,7]naphthyridine-3-carboxylic acid amide]	
683	152	CCSc1nc2nc(C(F)(F)F)ccc2c(C)c1C(=O)NCc1cccc(F)c1 [Example 6, 2-Ethylsulfanyl-N-[(3-fluorophenyl)-methyl]-4-methyl-7-(trifluoromethyl)-[1,8]naphthyridine-3-carboxylic acid amide]	
201	101	CCSc1nc2cc(C(F)(F)F)ncc2c(C)c1C(=O)NCc1cccc(F)c1 [Example 11, 2-Ethylsulfanyl-N-[(3-fluorophenyl)-methyl]-4-methyl-7-(trifluoromethyl)-[1,6]naphthyridine-3-carboxylic acid amide]	
	32	CCSc1nc2ccncc2c(C)c1C(=O)NCc1cccc(F)c1 [Example 13, 2-Ethylsulfanyl-N-[(3-fluorophenyl)-methyl]-4-methyl-[1,6]naphthyridine-3-carboxylic acid amide]	
	10	CCSc1nc2ncccc2c(C)c1C(=O)NCc1cccc(F)c1 [Example 17, 2-Ethylsulfanyl-N-[(3-fluorophenyl)-methyl]-4-methyl-[1,8]naphthyridine-3-carboxylic acid amide]	
	9	CCSc1nc2cccnc2c(C)c1C(=O)NCc1cccc(F)c1 [Example 8, 2-Ethylsulfanyl-N-[(3-fluorophenyl)-methyl]-4-methyl-[1,5]naphthyridine-3-carboxylic acid amide]	
301	97	CCSc1nc2cc(C(F)(F)F)ncc2c(C)c1C(=O)NCc1ccc(F)cc1 [Example 12, 2-Ethylsulfanyl-N-[(4-fluorophenyl)-methyl]-4-methyl-7-(trifluoromethyl)-[1,6]naphthyridine-3-carboxylic acid amide]	
	31	CCSc1nc2sccc2c(C)c1C(=O)NCc1cccc(F)c1 [Example 4, 6-Ethylsulfanyl-N-[(3-fluorophenyl)-methyl]-4-methyl-thieno[2,3-b]pyridine-5-carboxylic acid amide]	
101	148	CCSc1nc2cc(C(F)(F)F)cnc2c(C)c1C(=O)NCc1ccc(F)cc1 [Example 10, 2-Ethylsulfanyl-N-[(4-fluorophenyl)-methyl]-4-methyl-7-(trifluoromethyl)-[1,5]naphthyridine-3-carboxylic acid amide]	
84	156	CCSc1nc2cc(C(F)(F)F)cnc2c(C)c1C(=O)NCc1cccc(F)c1 [Example 1, 2-Ethylsulfanyl-N-[(3-fluorophenyl)-methyl]-4-methyl-7-(trifluoromethyl)-[1,5]naphthyridine-3-carboxylic acid amide]	

The next lines start with the compound.

SMILES	EC50 (KCNQ2/3 channels) [nM]	Emax (KCNQ2/3 channels) [%]	Low intensity tail flick, rat, peroral, ED50 or MPE (dose) [mg/kg] [1]
CCOc1nc2cc(C(F)(F)F)sc2c(C)c1C(=O)NCc1cccc(F)c1 [Example 5, 5-Ethoxy-N-[(3-fluorophenyl)-methyl]-7-methyl-2-(trifluoromethyl)-thieno[3,2-b]pyridine-6-carboxylic acid amide]	51	121	
CCSc1nc2ccncc2c(C)c1C(=O)NCc1ccc(F)cc1 [Example 3, 2-Ethylsulfanyl-N-[(4-fluorophenyl)-methyl]-4-methyl-[1,6]naphthyridine-3-carboxylic acid amide]		34	
CCSc1nc2cnccc2c(C)c1C(=O)NCc1ccc(F)cc1 [Example 15, 2-Ethylsulfanyl-N-[(4-fluorophenyl)-methyl]-4-methyl-[1,7]naphthyridine-3-carboxylic acid amide]		34	
CCSc1nc2cccnc2c(C)c1C(=O)NCc1ccc(F)cc1 [Example 9, 2-Ethylsulfanyl-N-[(4-fluorophenyl)-methyl]-4-methyl-[1,5]naphthyridine-3-carboxylic acid amide]		6	
CCSc1nc2ccsc2c(C)c1C(=O)NCc1cccc(F)c1 [Example 14, 5-Ethylsulfanyl-N-[(3-fluorophenyl)-methyl]-7-methyl-thieno[3,2-b]pyridine-6-carboxylic acid amide]	650	-39	
CCSc1nc2ncccc2c(C)c1C(=O)NCc1ccc(F)cc1 [Example 16, 2-Ethylsulfanyl-N-[(4-fluorophenyl)-methyl]-4-methyl-[1,8]naphthyridine-3-carboxylic acid amide]		10	
CCOc1nc2sc(C(F)(F)F)cc2c(C)c1C(=O)NCc1cccc(F)c1 [Example 18, 6-Ethoxy-N-[(3-fluorophenyl)-methyl]-4-methyl-2-(trifluoromethyl)-thieno[2,3-b]pyridine-5-carboxylic acid amide]	63	112	
CCSc1nc2nc(C(F)(F)F)ccc2c(C)c1C(=O)NCc1ccc(F)cc1 [Example 7, 2-Ethylsulfanyl-N-[(4-fluorophenyl)-methyl]-4-methyl-7-(trifluoromethyl)-[1,8]naphthyridine-3-carboxylic acid amide]	412	132	16 (10) %

From patent US9248122B2, “Heteroquinoline-3-carboxamides as KCNQ2/3 modulators” (GRÜNENTHAL GMBH, priority 2012, dated 2016)
